# In PMC4106271 (Journal of Medicinal Chemistry, 2014):
# Target: T1, α1β2γ2S GABAA receptors (Homo sapiens, UniProt P14867+P47870)
# T1 construct: expressed in transfected cells; host or cells: Xenopus laevis oocytes injected with cRNA (pCMV cDNA templates)
# Assay: Two-microelectrode voltage clamp, IGABA modulation, α1β2γ2S
# Format: cell-based
# Conditions: 100 μM compound, GABA EC3–7, Xenopus laevis oocytes, mean ± SEM
# Procedure: Preparation of stage V–VI oocytes from X. laevis and synthesis of capped runoff poly(A) cRNA transcripts from linearized cDNA templates (pCMV vector) was performed as previously described.[49] […] Follicle membranes from isolated oocytes were enzymatically digested with 2 mg/mL collagenase (type 1A, Sigma–Aldrich, Vienna, Austria).
# Selected oocytes were injected with 10–50 nL of DEPC-treated water (diethyl pyrocarbonate, Sigma, Vienna, Austria) containing the different GABAA cRNAs at a concentration of approximately 300–3000 pg·nL^–1·subunit^–1.
# To ensure expression of the γ2S subunit in the case of α1/2/3/5β2/3γ2S receptors, cRNAs were mixed in a ratio of 1:1:10. […] The amount of cRNAs was determined by means of a NanoDrop ND-1000 (Kisker-Biotech, Steinfurt, Germany).
# Oocytes were stored at +18 °C in modified ND96 solution (90 mM NaCl, 1 mM CaCl2, 1 mM KCl, 1 mM MgCl2·6H2O, and 5 mM HEPES [4-(2-hydroxyethyl)-1-piperazineethanesulfonic acid], pH 7.4, all from Sigma–Aldrich, Vienna, Austria).
# Chloride currents through GABAA receptors (IGABA) were measured at room temperature (+21 ± 1 °C) by means of a two-microelectrode voltage clamp technique making use of a Turbo TEC-05X amplifier (npi electronic, Tamm, Germany). IGABA were elicited at a holding potential of –70 mV. Data acquisition was carried out by means of an Axon Digidata 1322A interface using pCLAMP v.10 (Molecular Devices, Sunnyvale, CA). The modified ND96 solution was used as bath solution.
# GABA and the studied derivatives were applied by means of the ScreeningTool (npi electronic, Tamm, Germany) fast perfusion system as described previously.[50] To elicit IGABA, the chamber was perfused with 120 μL of GABA- or compound-containing solution at a volume rate of 300 μL/s.[34] Care was taken to account for possible slow recovery from increasing levels of desensitization in the presence of high drug concentrations. The duration of washout periods was therefore extended from 1.5 min (<10 μM compounds) to 30 min (≥10 μM compounds). Oocytes with maximal current amplitudes >3 μA were discarded to exclude voltage clamp errors.
# Stimulation of chloride currents by modulators of the GABAA receptor was measured at a GABA concentration eliciting between 3% and 7% of the maximal current amplitude (EC3–7). The GABA EC3–7 was determined for each oocyte individually. Enhancement of the chloride current was defined as (IGABA+compd/IGABA) – 1, where IGABA+compd is the current response in the presence of a given compound and IGABA is the control GABA current. IGABA-max reflects the maximal IGABA enhancement. Concentration–response curves were generated and the data were fitted by nonlinear regression analysis using Origin Software (OriginLab Corp.). Data were fitted to the equation 1/(1 + (EC50/[compound])^nH), where nH is the Hill coefficient. […] Statistical significance was calculated by paired Student t-test with a confidence interval of <0.05.
# T1 sequence (P14867 28-456): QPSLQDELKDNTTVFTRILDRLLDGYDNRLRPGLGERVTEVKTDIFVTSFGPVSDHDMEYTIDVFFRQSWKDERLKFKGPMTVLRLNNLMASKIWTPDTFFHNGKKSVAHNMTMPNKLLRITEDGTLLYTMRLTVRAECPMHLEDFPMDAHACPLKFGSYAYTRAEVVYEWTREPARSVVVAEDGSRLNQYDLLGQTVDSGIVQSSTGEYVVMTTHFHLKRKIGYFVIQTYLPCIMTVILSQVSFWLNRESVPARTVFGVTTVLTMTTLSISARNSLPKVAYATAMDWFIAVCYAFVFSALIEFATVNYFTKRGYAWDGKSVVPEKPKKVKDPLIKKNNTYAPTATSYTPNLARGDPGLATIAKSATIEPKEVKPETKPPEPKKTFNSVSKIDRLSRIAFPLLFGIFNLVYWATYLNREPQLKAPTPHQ
# T1 sequence (P47870 26-512): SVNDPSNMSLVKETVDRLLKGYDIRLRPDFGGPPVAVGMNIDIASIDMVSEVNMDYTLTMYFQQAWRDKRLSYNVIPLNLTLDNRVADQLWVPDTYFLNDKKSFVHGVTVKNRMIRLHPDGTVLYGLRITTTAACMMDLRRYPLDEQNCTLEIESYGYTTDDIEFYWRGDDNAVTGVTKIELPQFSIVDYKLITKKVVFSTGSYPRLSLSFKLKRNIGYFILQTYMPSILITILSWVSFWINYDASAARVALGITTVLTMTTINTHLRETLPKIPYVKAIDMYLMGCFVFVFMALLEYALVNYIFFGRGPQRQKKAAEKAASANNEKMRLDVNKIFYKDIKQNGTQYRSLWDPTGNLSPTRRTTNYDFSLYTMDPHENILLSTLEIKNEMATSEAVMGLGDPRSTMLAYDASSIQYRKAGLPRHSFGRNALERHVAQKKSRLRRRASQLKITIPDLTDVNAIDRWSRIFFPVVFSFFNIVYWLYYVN
# T1 sequence (P18507 40-467 isoform P18507-1 partner limits assumed): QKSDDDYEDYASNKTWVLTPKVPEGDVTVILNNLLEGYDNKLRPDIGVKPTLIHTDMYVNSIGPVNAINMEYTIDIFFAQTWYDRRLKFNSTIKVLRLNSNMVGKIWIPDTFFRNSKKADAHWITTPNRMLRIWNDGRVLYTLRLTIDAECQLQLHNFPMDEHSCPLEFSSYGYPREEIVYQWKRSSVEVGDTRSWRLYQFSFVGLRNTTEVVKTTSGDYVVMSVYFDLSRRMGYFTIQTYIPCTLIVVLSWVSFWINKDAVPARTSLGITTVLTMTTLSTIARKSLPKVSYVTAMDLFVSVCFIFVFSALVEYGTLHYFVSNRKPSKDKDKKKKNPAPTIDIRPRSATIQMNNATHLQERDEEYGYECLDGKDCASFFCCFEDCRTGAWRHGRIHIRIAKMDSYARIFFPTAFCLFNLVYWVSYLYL
SMILES,activation at 100 µM [%],modulation of IGABA (%)
O=C(/C=C/C=C/c1ccc2c(c1)OCO2)Nc1ccc([N+](=O)[O-])cc1O [Compound 10],1 ± 7,
O=C(/C=C/C=C/c1ccc2c(c1)OCO2)Nc1c(F)cc(F)cc1F [Compound 3],5 ± 5,
O=C(/C=C/c1ccc2cc3c(cc2c1)OCO3)N1CCCCC1 [Compound 68],-1,
COc1ccccc1N1CCN(C(=O)/C=C/C=C/c2ccc3c(c2)OCO3)CC1 [Compound 41],5 ± 5,
CCCCN(CCCC)C(=O)c1cccc(-c2ccc3c(c2)OCO3)c1 [Compound 52],63 ± 12,
O=C(c1ccc(-c2ccc3c(c2)OCO3)cc1)N1CCCCC1 [Compound 46],42,42 ± 1
COc1cc(NC(=O)/C=C/C=C/c2ccc3c(c2)OCO3)cc(OC)c1OC [Compound 2],10,
O=C(/C=C/C=C/c1ccc2c(c1)OCO2)Nc1ccc(Cl)cn1 [Compound 7],8 ± 7,
S=C(/C=C/C=C/c1ccc2c(c1)OCO2)N1CCCCC1 [Compound 44],17 ± 17,
O=C(c1ccc2cc3c(cc2c1)OCO3)N1CCCCC1 [Compound 75],58 ± 29,
"O=C(c1cccc2c(-c3ccc4c(c3)OCO4)cccc12)N1CCCCC1 [Compound 62, [5-(Benzo[d][1,3]dioxol-5-yl)naphthalen-1-yl](piperidin-1-yl)methanone]",13 ± 2,
CCCN(CCC)C(=O)c1cccc2c(-c3ccc4c(c3)OCO4)cccc12 [Compound 63],12 ± 4,
CCCCN(CCCC)C(=O)c1ccc(-c2ccc3c(c2)OCO3)s1 [Compound 60],51 ± 21,
CN1CCN(C(=O)/C=C/C=C/c2ccc3c(c2)OCO3)CC1 [Compound 31],-20,
O=C(/C=C/C=C/c1ccc2c(c1)OCO2)N1CCOCC1 [Compound 29],0,
O=C(c1cccc2cc3c(cc12)OCO3)N1CCCCC1 [Compound 71],32 ± 10,
O=C(/C=C/C=C/c1ccc2c(c1)OCO2)N1CCC(O)CC1 [Compound 37],26 ± 14,
CCCN(CCC)C(=O)/C=C/c1cccc2cc3c(cc12)OCO3 [Compound 66],67 ± 23,
O=C(/C=C/C=C/c1ccc2c(c1)OCO2)NCCCc1ccccc1 [Compound 8],-8,
O=C(/C=C/C=C/c1ccc2c(c1)OCO2)Nc1cccnc1 [Compound 6],-7,
CN(C)CCNC(=O)/C=C/C=C/c1ccc2c(c1)OCO2 [Compound 4],-15,
CCCCCCCCCCNC(=O)/C=C/C=C/c1ccc2c(c1)OCO2 [Compound 15],-1,
O=C(c1ccccc1-c1ccc2c(c1)OCO2)N1CCCCC1 [Compound 54],34 ± 8,
CC(C)N(C(=O)c1ccccc1-c1ccc2c(c1)OCO2)C(C)C [Compound 57],15 ± 15,
O=C(c1ccc(-c2ccc3c(c2)OCO3)s1)N1CCCCC1 [Compound 58],-5,
O=C(/C=C/C=C/c1ccc2c(c1)OCO2)N1CCN(CCOCCO)CC1 [Compound 40],12 ± 8,
CCCN(CCC)C(=O)c1ccccc1-c1ccc2c(c1)OCO2 [Compound 55],79 ± 24,

SMILES,activation at 100 µM [%],modulation of IGABA (%)
CCCCNC(=O)/C=C/C=C/c1ccc2c(c1)OCO2 [Compound 11],51 ± 11,
O=C(/C=C/C=C/c1ccc2c(c1)OCO2)NC1CCCC1 [Compound 13],33 ± 17,
CC(C)N(C(=O)c1ccc(-c2ccc3c(c2)OCO3)s1)C(C)C [Compound 61],11 ± 2,
O=C(/C=C/C=C/c1ccc2c(c1)OCO2)N1CCN(Cc2ccccc2)CC1 [Compound 42],48 ± 12,
CC(C)N(C(=O)/C=C/c1ccc2c(c1)OCO2)C(C)C [Compound 18],66 ± 30,
O=C(/C=C/C=C/c1ccc2c(c1)OCO2)NC12CC3CC(CC(C3)C1)C2 [Compound 16],-6,
O=C(/C=C/C=C/c1ccc2c(c1)OCO2)NCc1ccccc1 [Compound 14],0,
C(/C=C/c1ccc2c(c1)OCO2)=C\CN1CCCCC1 [Compound 45],-16,
O=C(/C=C/C=C/c1ccc2c(c1)OCO2)N(C1CCCCC1)C1CCCCC1 [Compound 27],13 ± 13,
O=C(/C=C/C=C/c1ccc2c(c1)OCO2)Nc1ccccc1O [Compound 9],0,
O=C(/C=C/c1ccc2c(c1)OCO2)N1CCCCC1 [Compound 17],79 ± 8,
CCCCN(CCCC)C(=O)/C=C/c1cccc2cc3c(cc12)OCO3 [Compound 67],18 ± 9,
O=C(/C=C/C=C/c1ccc2c(c1)OCO2)N1CCCC(O)C1 (centres unmarked) [Compound 36],33 ± 9,
"CCCN(CCC)C(=O)c1cccc(-c2ccc3c(c2)OCO3)c1 [Compound 51, 3-(Benzo[d][1,3]dioxol-5-yl)-N,N-dipropylbenzamide]",280,280 ± 52
CCCCN(CCCC)C(=O)/C=C/c1ccc2cc3c(cc2c1)OCO3 [Compound 70],32,32 ± 12
CCCCN(CCCC)C(=O)c1cccc2c(-c3ccc4c(c3)OCO4)cccc12 [Compound 64],4 ± 4,
CCCN(CCC)C(=O)/C=C/c1ccc2cc3c(cc2c1)OCO3 [Compound 69],74 ± 1,
CCN1CCN(C(=O)/C=C/C=C/c2ccc3c(c2)OCO3)CC1 [Compound 32],-5,
CC(C)N(C(=O)c1ccc(-c2ccc3c(c2)OCO3)cc1)C(C)C [Compound 49],30 ± 15,
COc1ccc(CCNC(=O)/C=C/C=C/c2ccc3c(c2)OCO3)cc1OC [Compound 5],-2,
CSc1ccc(NC(=O)/C=C/C=C/c2ccc3c(c2)OCO3)cc1 [Compound 1],0,
O=C(/C=C/C=C/c1ccc2c(c1)OCO2)NCCC(c1ccccc1)c1ccccc1 [Compound 12],-6,
CN(C)C(=O)/C=C/C=C/c1ccc2c(c1)OCO2 [Compound 20],61 ± 28,
CCCCN(CCCC)C(=O)c1ccc(-c2ccc3c(c2)OCO3)cc1 [Compound 48],49 ± 7,
CCCCCCN(CCCCCC)C(=O)/C=C/C=C/c1ccc2c(c1)OCO2 [Compound 26],0,
CC(C)CN(CC(C)C)C(=O)c1cccc2cc3c(cc12)OCO3 [Compound 74],60 ± 17,

# Same assay, conditions: Hill coefficient of concentration–response curve
row,SMILES,nH
1,O=C(/C=C/C=C/c1ccc2c(c1)OCO2)N(CC(F)(F)F)CC(F)(F)F [Compound 43],1.6 ± 0.2
2,CC(C)N(C(=O)/C=C/C=C/c1ccc2c(c1)OCO2)C(C)C [Compound 22],2.3 ± 0.2
3,CCCN(CCC)C(=O)c1cccc2cc3c(cc12)OCO3 [Compound 72],1.9 ± 0.2
4,CCCCN(CCCC)C(=O)c1ccccc1-c1ccc2c(c1)OCO2 [Compound 56],1.2 ± 0.0
5,CC(C)N(C(=O)c1cccc(-c2ccc3c(c2)OCO3)c1)C(C)C [Compound 53],1.5 ± 0.2
6,CCCN(CCC)C(=O)c1ccc(-c2ccc3c(c2)OCO3)cc1 [Compound 47],1.2 ± 0.2
7,CCCCN(CCCC)C(=O)c1cccc2cc3c(cc12)OCO3 [Compound 73],2.7 ± 0.2
8,CC1CCN(C(=O)/C=C/C=C/c2ccc3c(c2)OCO3)CC1 [Compound 35],1.9 ± 0.3

# Same assay, conditions: IGABA enhancement, GABA EC3–7, Xenopus oocytes
row,SMILES,EC50 [µM]
1,O=C(/C=C/C=C/c1ccc2c(c1)OCO2)N(CC(F)(F)F)CC(F)(F)F [Compound 43],23.1 ± 3.3
2,CC(C)N(C(=O)/C=C/C=C/c1ccc2c(c1)OCO2)C(C)C [Compound 22],86.7 ± 13.9
3,CCCN(CCC)C(=O)c1cccc2cc3c(cc12)OCO3 [Compound 72],102 ± 11.2
4,CCCCN(CCCC)C(=O)c1ccccc1-c1ccc2c(c1)OCO2 [Compound 56],36.8 ± 2
5,CC(C)N(C(=O)c1cccc(-c2ccc3c(c2)OCO3)c1)C(C)C [Compound 53],55.3 ± 17.6
6,CCCN(CCC)C(=O)c1ccc(-c2ccc3c(c2)OCO3)cc1 [Compound 47],70.8 ± 21.1
7,CCCCN(CCCC)C(=O)c1cccc2cc3c(cc12)OCO3 [Compound 73],31.8 ± 5.3
8,CC1CCN(C(=O)/C=C/C=C/c2ccc3c(c2)OCO3)CC1 [Compound 35],67.7 ± 11

# Target: T1, α1β2γ2S GABAA receptors
# Assay: not given
# Conditions: 100 μM; cited from earlier work
row,SMILES,potentiation of IGABA
1,"O=C(/C=C/C=C/c1ccc2c(c1)OCO2)N1CCCCC1 [piperine, 1-piperoylpiperidine]",226% ± 26%

# Same assay, conditions: Hill coefficient; cited from earlier work
row,SMILES,nH
1,"O=C(/C=C/C=C/c1ccc2c(c1)OCO2)N1CCCCC1 [piperine, 1-piperoylpiperidine]",1.5 ± 0.2
